The source made the active and inactive calls.
Key:
Coagulation factor XII = molecular target: T1, Coagulation factor XII (Homo sapiens, UniProt P00748); type: functional;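 further: activated factor XIIa alpha cleaving a fluorogenic AMC peptide substrate; inhibitor potency from loss of enzyme activity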
T1 sequence (P00748 whole entry): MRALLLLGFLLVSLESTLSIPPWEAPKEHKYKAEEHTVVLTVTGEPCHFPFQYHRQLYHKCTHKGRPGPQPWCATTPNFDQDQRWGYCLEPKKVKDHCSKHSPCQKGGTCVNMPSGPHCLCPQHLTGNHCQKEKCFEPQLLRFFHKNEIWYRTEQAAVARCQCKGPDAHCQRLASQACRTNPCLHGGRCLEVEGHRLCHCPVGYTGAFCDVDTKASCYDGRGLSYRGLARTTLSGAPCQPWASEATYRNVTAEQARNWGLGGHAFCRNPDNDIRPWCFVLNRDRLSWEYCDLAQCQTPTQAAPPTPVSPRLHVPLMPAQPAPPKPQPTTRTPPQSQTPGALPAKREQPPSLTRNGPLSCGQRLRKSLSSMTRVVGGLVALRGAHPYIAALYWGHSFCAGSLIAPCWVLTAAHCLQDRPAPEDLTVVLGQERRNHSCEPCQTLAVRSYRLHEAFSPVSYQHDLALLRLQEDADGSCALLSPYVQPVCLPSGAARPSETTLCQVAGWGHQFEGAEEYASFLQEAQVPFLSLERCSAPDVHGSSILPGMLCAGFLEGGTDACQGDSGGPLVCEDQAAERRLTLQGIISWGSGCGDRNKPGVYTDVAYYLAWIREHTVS

INS1 = assay: INS-1E survival protection against cytokine death – cell-based, luminescence, retest, dose response (AID 449756); type: functional; settings: Rattus norvegicus;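 further: cell death triggered by IL-1 beta plus TNF-alpha plus IFN-gamma mixture; protective hits raise ATP signal compared with cytokine alone wells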
[1] = viability of uninfected HEp-2 cells – cell-based, HTS, cytotoxicity control for RSV inhibitor project, dose response (AID 2410); type: functional; settings: human respiratory syncytial virus
[2] = luciferase reporter signal suppression in cells – H4 neuroglioma cells, luminescence, dose response (AID 1990); type: functional, cell-based
[3] = Luminescence Cell-Based Dose Response HTS to Identify Inhibitors of 5'UTR Stem-Loop Driven Prion Protein mRNA Translation in H4 Neuroglioblastoma Cells. [Related pubchem assays: 1827 (Project Summary), 1813 (Primary HTS)]; type: functional
[4] = alpha-synuclein stem-loop luciferase translation blockers – H4 neuroglioma cells, luminescence, confirmation (AID 1988); type: functional, cell-based
Vero [5] = assay: cells; type: functional, cell-based; settings: Chlorocebus sabaeus
Vero [6] = assay: cells; type: functional; settings: Chlorocebus sabaeus
[7] = molecular target: Beta-2 adrenergic receptor (Homo sapiens, UniProt P07550); assay: ADRB2 activation measured by internalization – cell-based, FAP fluorogen, flow cytometry, cherry pick 1, dose response (AID 588763); type: functional
Sequence of Beta-2 adrenergic receptor (P07550 whole entry): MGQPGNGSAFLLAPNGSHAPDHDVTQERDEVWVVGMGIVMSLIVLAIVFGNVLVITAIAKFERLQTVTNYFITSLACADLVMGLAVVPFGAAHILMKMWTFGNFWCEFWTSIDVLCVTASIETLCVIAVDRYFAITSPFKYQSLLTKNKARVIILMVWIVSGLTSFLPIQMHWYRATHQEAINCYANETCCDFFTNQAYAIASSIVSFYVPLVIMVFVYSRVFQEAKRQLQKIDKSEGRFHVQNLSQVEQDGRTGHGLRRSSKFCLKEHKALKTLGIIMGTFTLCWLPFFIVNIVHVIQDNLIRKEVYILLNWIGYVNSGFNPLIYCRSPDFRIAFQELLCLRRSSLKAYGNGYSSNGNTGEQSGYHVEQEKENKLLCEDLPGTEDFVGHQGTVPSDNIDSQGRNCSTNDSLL

[8] = molecular target: T2, Calpain-2 catalytic subunit (Sus scrofa, UniProt P43367); assay: m-calpain protease blockers, concentration series – biochemical, fluorogenic peptide substrate, dose response (AID 1420); type: functional
T2 sequence (P43367 whole entry): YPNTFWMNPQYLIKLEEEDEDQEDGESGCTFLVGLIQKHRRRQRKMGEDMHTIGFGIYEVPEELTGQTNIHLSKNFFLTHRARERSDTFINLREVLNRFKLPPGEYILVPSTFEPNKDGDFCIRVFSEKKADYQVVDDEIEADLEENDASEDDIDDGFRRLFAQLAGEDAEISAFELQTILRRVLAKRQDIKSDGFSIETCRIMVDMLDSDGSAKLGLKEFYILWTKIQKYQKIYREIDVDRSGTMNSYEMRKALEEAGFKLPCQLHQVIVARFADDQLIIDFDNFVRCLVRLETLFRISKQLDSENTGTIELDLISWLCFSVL

[9] = molecular target: T3, Carboxy-terminal domain RNA polymerase II polypeptide A small phosphatase 1 (Homo sapiens, UniProt Q9GZU7); assay: CTDSP1 inhibitors, concentration-response, biochemical, absorbance readout, ultra-high-throughput screen actives (AID 540297); type: functional
T3 sequence (Q9GZU7 whole entry): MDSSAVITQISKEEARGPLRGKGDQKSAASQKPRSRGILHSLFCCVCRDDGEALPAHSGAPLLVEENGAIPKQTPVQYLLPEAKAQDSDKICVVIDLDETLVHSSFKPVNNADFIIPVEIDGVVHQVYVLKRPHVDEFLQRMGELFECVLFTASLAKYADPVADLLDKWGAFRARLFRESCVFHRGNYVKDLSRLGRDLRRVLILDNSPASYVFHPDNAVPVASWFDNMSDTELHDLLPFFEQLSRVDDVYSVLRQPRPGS

Question: Which IC50 (Coagulation factor XII) does the source give for `c1ccc(-c2csc3ncnc(NCC4COc5ccccc5O4)c23)cc1` (centres undefined) here?
Answer: > 50 µM (inactive)

Question: And the AC50 (INS1)?
Answer: 1.41 µM (active)

Question: For `CCOc1ccccc1CNC(=O)c1cc2oc3ccccc3c2n1CC`, which CC50 [1] is on record?
Answer: 13.8 µM (active)

Question: What about the EC50 [2] of the same compound?
Answer: > 120 µM (not active)

Question: And the EC50 [3]?
Answer: 16.6 µM (active)

Question: And the EC50 [4]?
Answer: 14.9 µM (active)

Question: And the IC50 (Vero [5])?
Answer: > 12.5 µM (active)

Question: And the CC50 (Vero [6])?
Answer: > 25 µM (active)

Question: And the IC50 (cells)?
Answer: 42.3 µM (active)

Question: Which EC50 [7] does the source give for `CCOc1ccc2nc(NC(=O)CSc3nc4cccnc4n3C)sc2c1` here?
Answer: 2.44 µM (active)

Question: For `O=C1CC(c2ccccc2)(c2ccccc2)c2ccccc21`, which EC50 [7] is on record?
Answer: 17.1 µM (inactive)

Question: What does the source list for `C=CCNC(=S)N/N=C/c1ccc(C)c([N+](=O)[O-])c1`?
Answer: IC50 [8]: 3.49 µM (not active); IC50 (Coagulation factor XII): > 50 µM (inactive)

Question: For `O=C(O)c1ccc(Oc2ccc(S(=O)(=O)c3ccc(C(=O)O)c(C(=O)O)c3)cc2)cc1`, which IC50 [9] is on record?
Answer: 6.97 µM (active)
